Experimental findings from ChEMBL document CHEMBL1147899, “Raman, FT-IR, NMR spectroscopic data and antimicrobial activity of bis[micro2-(benzimidazol-2-yl)-2-ethanethiolato-N,S,S-chloro-palladium(II)] dimer, [(micro2-CH2CH2NHNCC6H4)PdCl]2.C2H5OH complex” (2007) are described below.

Experiment [1] concerns Escherichia coli. Kind of experiment: Antibacterial activity against Escherichia coli ATCC 11230 at 10 ug after 24 hrs by disk diffusion method. In kind it is functional. The settings on record: ATCC 11230, 24 h, read-out: IZ. (In agar diffusion tests the substance spreads into inoculated agar from a disc or well.)
The subject of experiment [2] is Klebsiella pneumoniae. Nature of the experiment: Antibacterial activity against Klebsiella pneumoniae UC57 at 10 ug after 24 hrs by disk diffusion method. In kind it is functional. The settings on record: read-out: IZ.
Experiment [3] relates to Mycolicibacterium smegmatis. Kind of experiment: Antibacterial activity against Mycobacterium smegmatis CCM 2067 at 10 ug after 24 hrs by disk diffusion method. In kind it is functional. The settings on record: CCM 2067, 24 h, read-out: IZ.
Experiment [4] relates to Listeria monocytogenes. Nature of the experiment: Antibacterial activity against Listeria monocytogenes ATCC 15313 at 10 ug after 24 hrs by disk diffusion method. In kind it is functional. Conditions: ATCC 15313, 24 h, read-out: IZ.
Experiment [5] has as its system Pseudomonas aeruginosa. Nature of the experiment: Antibacterial activity against Pseudomonas aeruginosa ATCC 27853 at 10 ug after 24 hrs by disk diffusion method. The format is functional. Conditions: ATCC 27853, 24 h, read-out: IZ.
For experiment [6], the system named is Micrococcus luteus. Kind of experiment: Antibacterial activity against Micrococcus luteus La 2971 at 10 ug by disk diffusion method. In kind it is functional. Conditions: read-out: IZ.
For experiment [7], the system named is Staphylococcus aureus. Kind of experiment: Antibacterial activity against Staphylococcus aureus ATCC 6538 at 10 ug after 24 hrs by disk diffusion method. In kind it is functional. Conditions: ATCC 6538, 24 h, read-out: IZ.
For experiment [8], the system named is Proteus vulgaris. Kind of experiment: Antibacterial activity against Proteus vulgaris ATCC 8427 at 10 ug after 24 hrs by disk diffusion method. The format is functional. Conditions: ATCC 8427, 24 h, read-out: IZ.
The test system of experiment [9] is Bacillus cereus. Nature of the experiment: Antibacterial activity against Bacillus cereus ATCC 7064 at 10 ug after 24 hrs by disk diffusion method. In kind it is functional. Conditions: ATCC 7064, 24 h, read-out: IZ.
Experiment [10] deals with Micrococcus luteus. Kind of experiment: Antibacterial activity against Micrococcus luteus La 2971 at 30 ug by disk diffusion method. The format is functional. The settings on record: read-out: IZ.
For experiment [11], the system named is Proteus vulgaris. Kind of experiment: Antibacterial activity against Proteus vulgaris ATCC 8427 at 30 ug after 24 hrs by disk diffusion method. In kind it is functional. Conditions: ATCC 8427, 24 h, read-out: IZ.
Experiment [12] deals with Pseudomonas aeruginosa. Kind of experiment: Antibacterial activity against Pseudomonas aeruginosa ATCC 27853 at 30 ug after 24 hrs by disk diffusion method. In kind it is functional. The settings on record: ATCC 27853, 24 h, read-out: IZ.
Experiment [13] relates to Listeria monocytogenes. Nature of the experiment: Antibacterial activity against Listeria monocytogenes ATCC 15313 at 30 ug after 24 hrs by disk diffusion method. The settings on record: ATCC 15313, 24 h, read-out: IZ. In kind it is functional.
The subject of experiment [14] is Klebsiella pneumoniae. Nature of the experiment: Antibacterial activity against Klebsiella pneumoniae UC57 at 30 ug after 24 hrs by disk diffusion method. In kind it is functional. The settings on record: read-out: IZ.
The subject of experiment [15] is Bacillus cereus. Nature of the experiment: Antibacterial activity against Bacillus cereus ATCC 7064 at 30 ug after 24 hrs by disk diffusion method. The format is functional. The settings on record: ATCC 7064, 24 h, read-out: IZ.
The subject of experiment [16] is Escherichia coli. Kind of experiment: Antibacterial activity against Escherichia coli ATCC 11230 at 30 ug after 24 hrs by disk diffusion method. The format is functional. Conditions: ATCC 11230, 24 h, read-out: IZ.
For experiment [17], the system named is Staphylococcus aureus. Kind of experiment: Antibacterial activity against Staphylococcus aureus ATCC 6538 at 30 ug after 24 hrs by disk diffusion method. The settings on record: ATCC 6538, 24 h, read-out: IZ. The format is functional.
Experiment [18] concerns Mycolicibacterium smegmatis. Nature of the experiment: Antibacterial activity against Mycobacterium smegmatis CCM 2067 at 30 ug after 24 hrs by disk diffusion method. In kind it is functional. Conditions: CCM 2067, 24 h, read-out: IZ.
For experiment [19], the system named is Pseudomonas aeruginosa. Kind of experiment: Antibacterial activity against Pseudomonas aeruginosa ATCC 27853 after 24 hrs by dilution method. The format is functional.
For experiment [20], the system named is Klebsiella pneumoniae. Nature of the experiment: Antibacterial activity against Klebsiella pneumoniae UC57 after 24 hrs by dilution method. In kind it is functional.
Experiment [21] relates to Escherichia coli. Nature of the experiment: Antibacterial activity against Escherichia coli ATCC 11230 after 24 hrs by dilution method. In kind it is functional.
The subject of experiment [22] is Staphylococcus aureus. Nature of the experiment: Antibacterial activity against Staphylococcus aureus ATCC 6538 after 24 hrs by dilution method. The format is functional.
The test system of experiment [23] is Listeria monocytogenes. Kind of experiment: Antibacterial activity against Listeria monocytogenes ATCC 15313 after 24 hrs by dilution method. The format is functional.
Experiment [24] concerns Mycolicibacterium smegmatis. Kind of experiment: Antibacterial activity against Mycobacterium smegmatis CCM 2067 after 24 hrs by dilution method. The format is functional.
The subject of experiment [25] is Proteus vulgaris. Kind of experiment: Antibacterial activity against Proteus vulgaris ATCC 8427 by after 24 hrs dilution method. In kind it is functional.
Experiment [26] deals with Bacillus cereus. Kind of experiment: Antibacterial activity against Bacillus cereus ATCC 7064 after 24 hrs by dilution method. In kind it is functional.
The subject of experiment [27] is Micrococcus luteus. Kind of experiment: Antibacterial activity against Micrococcus luteus La 2971 after 24 hrs by dilution method. In kind it is functional.
The subject of experiment [28] is Rhodotorula mucilaginosa. Nature of the experiment: Antifungal activity against Rhodotorula rubra DSM 70403 after 48 hrs by dilution method. The format is functional.
In experiment [29] the test system is Kluyveromyces marxianus. Kind of experiment: Antifungal activity against Kluyveromyces fragilis NRRL 2415 after 48 hrs by dilution method. In kind it is functional.
For experiment [30], the system named is Hanseniaspora guilliermondii. Nature of the experiment: Antifungal activity against Hanseniaspora guilliermondii DSM 3432 at 100 ug after 72 hrs by disk diffusion method. The format is functional, organism-based.
Experiment [31] relates to Debaryomyces hansenii. Kind of experiment: Antifungal activity against Debaryomyces hansenii DSM 70238 at 100 ug after 72 hrs by disk diffusion method. In kind it is functional, organism-based.
Experiment [32] concerns Rhodotorula mucilaginosa. Kind of experiment: Antifungal activity against Rhodotorula rubra DSM 70403 at 100 ug after 72 hrs by disk diffusion method. In kind it is functional, organism-based.
The subject of experiment [33] is Hanseniaspora guilliermondii. Kind of experiment: Antifungal activity against Hanseniaspora guilliermondii DSM 3432 after 48 hrs by dilution method. The format is functional.
Experiment [34] deals with Debaryomyces hansenii. Nature of the experiment: Antifungal activity against Debaryomyces hansenii DSM 70238 after 48 hrs by dilution method. In kind it is functional.
Experiment [35] relates to Kluyveromyces marxianus. Kind of experiment: Antifungal activity against Kluyveromyces fragilis NRRL 2415 at 100 ug after 72 hrs by disk diffusion method. The format is functional, organism-based.
Another experiment deals with Candida albicans. Kind of experiment: Antifungal activity against Candida albicans ATCC 10231 after 48 hrs by dilution method. In kind it is functional.

For `CC1(C)S[C@@H]2[C@H](NC(=O)Cc3ccccc3)C(=O)N2[C@H]1C(=O)O` [PENICILLIN G], the zone of inhibition at 10 µg/disc was 18 mm in the experiment on Escherichia coli [1]; 18 mm in the experiment on Klebsiella pneumoniae [2]; 15 mm in experiment [3]; 10 mm in the experiment with Listeria monocytogenes [4]; 8 mm in the experiment on Pseudomonas aeruginosa [5]; 36 mm in the experiment with Micrococcus luteus [6]. Also, the zone of inhibition at 10 µg/disc was 13 mm in the experiment with Staphylococcus aureus [7], 10 mm with Proteus vulgaris [8] and 14 mm with Bacillus cereus [9].
For `CN(C)[C@@H]1C(O)=C(C(N)=O)C(=O)[C@@]2(O)C(O)=C3C(=O)c4c(O)cccc4[C@@](C)(O)[C@H]3C[C@@H]12` [TETRACYCLINE], the zone of inhibition at 30 µg/disc in the experiment on Micrococcus luteus [10] was found to be 2 mm; in the experiment on Proteus vulgaris [11], 26 mm; with Pseudomonas aeruginosa [12] it was 34 mm; in the experiment on Listeria monocytogenes [13], 28 mm; in the experiment with Klebsiella pneumoniae [14], 30 mm; in the experiment with Bacillus cereus [15], 25 mm. For the same compound, the results for the zone of inhibition at 30 µg/disc (with Escherichia coli [16]; in the experiment on Staphylococcus aureus [17]; in experiment [18]) were 28 mm, 26 mm and 24 mm, respectively.
For `CN[C@H](CC(C)C)C(=O)N[C@H]1C(=O)N[C@@H](CC(N)=O)C(=O)N[C@H]2C(=O)N[C@H]3C(=O)N[C@H](C(=O)N[C@H](C(=O)O)c4cc(O)cc(O)c4-c4cc3ccc4O)[C@H](O)c3ccc(c(Cl)c3)Oc3cc2cc(c3O[C@@H]2O[C@H](CO)[C@@H](O)[C@H](O)[C@H]2O[C@H]2C[C@](C)(N)[C@H](O)[C@H](C)O2)Oc2ccc(cc2Cl)[C@H]1O` [VANCOMYCIN], the zone of inhibition at 30 µg/disc came out at 34 mm in the experiment on Micrococcus luteus [10]; 20 mm with Proteus vulgaris [11]; 10 mm with Pseudomonas aeruginosa [12]; 26 mm in the experiment with Listeria monocytogenes [13]; 22 mm with Klebsiella pneumoniae [14]; 18 mm in the experiment on Bacillus cereus [15]. The zone of inhibition at 30 µg/disc was found to be 22 mm in the experiment with Escherichia coli [16], 13 mm with Staphylococcus aureus [17] and 20 mm in experiment [18].
What is called MIC is the smallest concentration in the dilution series that meets the test's criterion for growth inhibition. A low value points to a more susceptible organism. For the compound GENTAMICIN, the MIC in the experiment on Pseudomonas aeruginosa [19] turned out to be 6.25 µg/mL; against Klebsiella pneumoniae [20], 6.25 µg/mL; against Escherichia coli [21] it was 6.25 µg/mL; in the experiment on Staphylococcus aureus [22], 25 µg/mL; with Listeria monocytogenes [23], 12.5 µg/mL; in experiment [24], 12.5 µg/mL. In addition, the values for the MIC against Proteus vulgaris [25], with Bacillus cereus [26] and against Micrococcus luteus [27] were 6.25 µg/mL, 6.25 µg/mL and 25 µg/mL, respectively.
As to NYSTATIN, the MIC against Rhodotorula mucilaginosa [28] stood at 6.25 µg/mL; in the experiment with Kluyveromyces marxianus [29], 6.25 µg/mL; in experiment [33], 3.12 µg/mL; in the experiment on Debaryomyces hansenii [34], 12.5 µg/mL; against Candida albicans it was 3.12 µg/mL. Besides, the inhibition zone (IZ) in experiment [30] came out at 21 mm; in the experiment with Debaryomyces hansenii [31] it was 16 mm; with Rhodotorula mucilaginosa [32], 18 mm; in the experiment with Kluyveromyces marxianus [35], 18 mm.
